Converted amounts (≈) assume the structure as drawn. “And” between values parts separate entries of the source, which are not always exact repeats. Equal values may be shown once.

A word on the EC50: it is the concentration at which the effect is half-maximal. The term MIC80 denotes an inhibitory concentration at the 80% level, which refers to growth in some studies and to a panel of isolates in others. Broadly, the IC50 is the point on the concentration scale where inhibition reaches its midpoint. Broadly, the MIC is the least concentration at which growth counts as inhibited.

Test [1] has as its system Xanthomonas oryzae pv. oryzae. Put plainly: Antibacterial activity against Xanthomonas oryzae pv. oryzae assessed as bacterial growth inhibition. The class given is functional, organism-based.
The subject of a further test is Candida albicans. Put plainly: Antifungal activity against Candida albicans Y0109 assessed as fungal growth inhibition. The class given is functional.
The next test relates to Plasmodium falciparum. Put plainly: Antimalarial activity against Plasmodium falciparum. The class given is functional, organism-based.
A short description of test [2]: Anticancer activity against human SK-MEL-128 cells assessed as cell growth inhibition incubated for 48 hrs by MTT assay. The note with it: SK-MEL-128, 48 h. In kind it is functional, cell-based. (In general: Formazan colour is commonly taken as a measure of viable cells.)
For the next test, the system named is A549. Description: Anticancer activity against human A549 cells assessed as cell growth inhibition incubated for 48 hrs by MTT assay. Particulars: A549, 48 h. In kind it is functional, cell-based.
A further test concerns DU-145. Put plainly: Anticancer activity against human DU-145 cells assessed as cell growth inhibition incubated for 48 hrs by MTT assay. In kind it is functional, cell-based. Particulars: DU-145, 48 h.
A further test deals with BT-20. Description: Anticancer activity against human BT-20 cells assessed as cell growth inhibition incubated for 48 hrs by MTT assay. Particulars: BT-20, 48 h. The class given is functional, cell-based.
Test [3] relates to Mycobacterium tuberculosis. Put plainly: Potency index, ratio of test compound MIC to Pyrazinamide MIC for antimycobacterial activity against Mycobacterium tuberculosis H37Rv. The class given is functional.
Test [4] has as its system Mycobacterium tuberculosis. Description: Antimycobacterial activity against Mycobacterium tuberculosis H37Rv measured […] by MABA assay. The class given is functional. (Alamar Blue is a resazurin reagent that responds to reducing activity.)
The test system of a further test is HT-29. Description: Antiproliferative activity against human HT-29 cells assessed as cell growth inhibition incubated for 48 hrs by MTT assay. The class given is functional, cell-based. The note with it: HT-29, 48 h.
A further test deals with RS4-11. Description: Antiproliferative activity against human RS4-11 cells assessed as cell growth inhibition incubated for 48 hrs by MTT assay. The class given is functional, cell-based. The note with it: RS4-11, 48 h.
A further test relates to Jurkat. Put plainly: Antiproliferative activity against human jurkat cells assessed as cell growth inhibition incubated for 48 hrs by MTT assay. The class given is functional, cell-based.
The test system of another test is HeLa. Put plainly: Antiproliferative activity against human HeLa cells assessed as cell growth inhibition incubated for 48 hrs by MTT assay. The class given is functional, cell-based.
Another test deals with MCF7. Description: Antiproliferative activity against human MCF7 cells assessed as cell growth inhibition incubated for 48 hrs by MTT assay. The note with it: MCF7, 48 h. In kind it is functional, cell-based.
The next test concerns MDA-MB-231. Description: Antiproliferative activity against human MDA-MB-231 cells assessed as cell growth inhibition by MTT assay. In kind it is functional, cell-based.
Test [5] relates to Mycobacterium tuberculosis. Description: Antimycobacterial activity against Mycobacterium tuberculosis H37Rv measured after 21 days. The note with it: 504 h, time 21 day. In kind it is functional.
Test [6] deals with Mycobacterium tuberculosis. Put plainly: Antimycobacterial activity against Mycobacterium tuberculosis H37Rv. In kind it is functional.
Another test has as its system Staphylococcus aureus. Description: Antibacterial activity against Staphylococcus aureus assessed as bacterial growth inhibition incubated for 16 hrs. The class given is functional.
The next test concerns Leishmania major. Description: Antileishmanial activity against promastigotes stage of Leishmania major. The class given is functional, organism-based.
The mark [7] stands for this setting: Plasmodium falciparum, read-out: IC50.

Turning to `COc1cccc(NC(=O)CSc2nnc(C3CCN(c4ncnc5ccccc45)CC3)n2-c2ccccc2)c1`, in test [1], the EC50 is 34.5 µg/mL (≈ 62.5 µM).

`O=C(OC1CCN(CC(O)(Cn2cncn2)c2ccc(F)cc2F)CC1)C(F)(F)F` (centres undefined): the MIC80 with Candida albicans was 9 nM (≈ 3.91 ng/mL).

As to `Cc1ccc(-c2cc(-c3c(C)nn(-c4ccccc4)c3-n3cncn3)n3c(c2)nc2ccccc23)cc1`, in the test on Plasmodium falciparum (setting [7]), the IC50 was 0.041 µg/mL (≈ 0.0851 µM).

As to `COc1ccc(-c2cc(-c3c(C)nn(-c4ccccc4)c3-n3cncn3)n3c(c2)nc2ccccc23)cc1`, the half-inhibitory concentration (IC50) in the test on Plasmodium falciparum (setting [7]) was 0.041 µg/mL (≈ 0.0824 µM).

Consider `Nn1c(Cc2ccc(Br)cc2)nn(CC(=O)NNC(=O)c2cc3cc(Cl)cc(Cl)c3oc2=O)c1=O`, for which the IC50 (in test [2]; in the test with A549; in the test on DU-145; in the test with BT-20) was 3.1 µg/mL (≈ 5.32 µM) each time.

`Nn1c(Cc2ccc(Cl)cc2)nn(CC(=O)NNC(=O)c2cc3cc(Cl)cc(Cl)c3oc2=O)c1=O`: the IC50 (in [2]; in the test on A549; in the test with DU-145; with BT-20) was 3.1 µg/mL (≈ 5.76 µM) in each case.

Consider `COc1ccc(-n2ncn(Cc3cn(Cc4cc(=O)oc5cc(C)ccc45)nn3)c2=O)cc1`, for which, in [3], the Ratio amounted to 2. Further, in test [4], it took 1.6 µg/mL (≈ 3.6 µM) to inhibit growth (MIC).

For the compound `CCN(CC)c1ccc2cc(C(=O)NNC(=O)Cn3nc(Cc4ccc(Cl)c(Cl)c4)n(N)c3=O)c(=O)oc2c1`, the half-maximal inhibitory concentration (IC50) (in test [2]; in the test on A549; with DU-145; in the test on BT-20) was 3.1 µg/mL (≈ 5.4 µM) each time.

Take `Cc1ccc2c(Cn3cc(Cn4cnn(-c5ccccc5)c4=O)nn3)cc(=O)oc2c1`: the Ratio in test [3] is listed as 2. Besides, inhibition of growth in [4] (MIC) required 1.6 µg/mL (≈ 3.86 µM).

Consider `CCCCCCCCCCCC(=O)OC1CCN(CC(O)(Cn2cncn2)c2ccc(F)cc2F)CC1` (centres undefined), for which the MIC80 in the test with Candida albicans is 9 nM (≈ 4.69 ng/mL).

With `COc1cccc(-c2nc(N)n(C(=O)c3cc(OC)c(OC)c(OC)c3)n2)c1`, the half-inhibitory concentration (IC50) in the test with HT-29, in the test with RS4-11, in the test with Jurkat, in the test with HeLa and with MCF7 was less than 1 µM in each case.

On to `O=C(CSc1nnc(C2CCN(c3ncnc4ccccc34)CC2)n1-c1ccccc1)Nc1ccc(F)cc1F`, for which the half-maximal effective concentration (EC50) in test [1] came to 34.5 µg/mL (≈ 61.9 µM).

With `Cc1nn(-c2ccccc2)c(-n2cncn2)c1-c1cc(-c2cc[nH]c2)cc2nc3ccccc3n12`, the IC50 in the test with Plasmodium falciparum is 0.092 µg/mL and 0.041 µg/mL.

As for `CC(C)C(=O)OC1CCN(CC(O)(Cn2cncn2)c2ccc(F)cc2F)CC1` (centres undefined), the MIC80 in the test with Candida albicans worked out at 9 nM (≈ 3.68 ng/mL).

`COc1ccc(-n2ncn(Cc3cn(Cc4cc(=O)oc5ccc(C(C)(C)C)cc45)nn3)c2=O)cc1`: in [3], the Ratio was 2. In test [4], this compound returned an MIC of 1.6 µg/mL (≈ 3.29 µM).

Regarding `Cc1nn(-c2ccccc2)c(=O)n1-n1c(-c2cc3ccccc3oc2=O)cs/c1=N\c1ccccc1`, the IC50 in the test with MDA-MB-231 came out at 0.16 µg/mL (≈ 0.324 µM).

With `Brc1ccc(/C=C/c2nnc3c4ccccc4cnn23)cc1`, the MIC in test [5] came out at 0.5 µg/mL (≈ 1.42 µM).

Consider `O=C(OC1CCN(CC(O)(Cn2cncn2)c2ccc(F)cc2F)CC1)C(F)(F)Cl` (centres undefined), for which, in the test with Candida albicans, the MIC80 stood at 9 nM (≈ 4.06 ng/mL).

For `CC1CC(C)(C)CC(O)(c2nnc(-c3ccncc3)[nH]2)C1` (centres undefined), the MIC in test [6] is 0.59 µg/mL (≈ 2.06 µM).

`CC1CCC(O)(c2nnc(-c3ccncc3)[nH]2)CC1` (centres undefined): the MIC in test [6] stood at 0.59 µg/mL (≈ 2.28 µM).

On to `O=C(CSc1nnc(C2CCN(c3ncnc4ccccc34)CC2)n1-c1ccccc1)Nc1cccc([N+](=O)[O-])c1`, for which the concentration giving a half-maximal response (EC50) in test [1] came to 34.5 µg/mL (≈ 60.9 µM).

Regarding `COc1ccc(/C=N/n2c(S)nnc2CNC(=O)c2ccc(C)cc2)cc1`, the MIC with Staphylococcus aureus was 3.12 µg/mL (≈ 8.19 µM).

Consider `COc1ccc(/N=c2\scc(-c3cc4ccccc4oc3=O)n2-n2c(C)nn(-c3ccc(Br)cc3)c2=O)cc1`, for which the IC50 with MDA-MB-231 was found to be 0.16 µg/mL (≈ 0.266 µM).

In the case of `Cc1nn(-c2ccccc2)c(-n2cncn2)c1-c1cc(-c2ccc(-c3cccs3)cc2)cc2nc3ccccc3n12`, the IC50 with Plasmodium falciparum (setting [7]) worked out at 0.041 µg/mL (≈ 0.0746 µM).

Compound `C[C@@H]1[C@H](O)[C@@H](C)/C=C/C=C/C=C/C=C/C=C/C=C/C=C/[C@H](O[C@@H]2O[C@H](C)[C@@H](O)[C@H](N)[C@@H]2O)C[C@@H]2O[C@](O)(C[C@@H](O)C[C@@H](O)[C@H](O)CC[C@@H](O)C[C@@H](O)CC(=O)O[C@H]1C)C[C@H](O)[C@H]2C(=O)O` [AMPHOTERICIN B] displayed a 50% inhibitory concentration (IC50) with Leishmania major of 0.0472 µg/mL (≈ 0.0511 µM).

For the compound `O=C(CSc1nnc(C2CCN(c3ncnc4ccccc34)CC2)n1-c1ccccc1)Nc1ccccc1[N+](=O)[O-]`, the EC50 in [1] turned out to be 34.5 µg/mL (≈ 60.9 µM).

For the compound `Cc1ccc(C(=O)NCc2nnc(S)n2/N=C/c2ccc(Cl)cc2)cc1`, in the test on Staphylococcus aureus, the minimum inhibitory concentration (MIC) amounted to 3.12 µg/mL (≈ 8.1 µM).

As to `CCCCCCCCCNC(=O)Cc1nnc2c3ccccc3cnn12`, the MIC in test [5] stood at 0.5 µg/mL (≈ 1.41 µM).

For the compound `COc1ccc(-n2ncn(Cc3cn(Cc4cc(=O)oc5ccc(Cl)cc45)nn3)c2=O)cc1`, the Ratio in test [3] is given as 2. The compound further yielded a minimum inhibitory concentration (MIC) in test [4] of 1.6 µg/mL (≈ 3.44 µM).

For the compound `O=c1cc(Cn2cc(Cn3cnn(-c4ccccc4)c3=O)nn2)c2c(ccc3ccccc32)o1`, the Ratio in test [3] worked out at 2. In test [4], 1.6 µg/mL (≈ 3.55 µM) was the least that counted as inhibitory (MIC).

Turning to `CCCCCCCC(=O)OC1CCN(CC(O)(Cn2cncn2)c2ccc(F)cc2F)CC1` (centres undefined), in the test with Candida albicans, the MIC80 worked out at 9 nM (≈ 4.18 ng/mL).

The values above are taken from ChEMBL document CHEMBL5244255, “An insight on medicinal attributes of 1,2,4-triazoles” (Eur J Med Chem, 2020).
